Reference: PMC10754118, “Lipophilic Nucleoside Triphosphate Prodrugs of Anti‐HIV Active Nucleoside Analogs as Potential Antiviral Compounds” (Advanced Science, 2023)
Read-outs that look alike come from different tables or passages of the source.

Key:
HIV‐2 [ROD)] = assay: Anti-HIV activity, HIV-2 in thymidine kinase-deficient CEM/TK^− cells; type: cell-based
Procedure: (§1) Part 9. Anti-HIV activity assay.
(§2) The produce was used as previously reported. 5 Inhibition of HIV-1(IIIB)- and HIV-2(ROD)-induced cytopathogenicity in wild-type CEM/0 and thymidine kinase-deficient CEM/TK– cell cultures was measured in […]
(§3) containing appropriate dilutions of the test compounds. After 4−5 days of incubation at 37 °C in a CO2-controlled humidified atmosphere, CEM giant (syncytium) cell formation was examined microscopically. The […]
(§4) giant cell formation by 50%.
(§5) Part 10. Primer-extension assays. […]

HIV‐1 [HE] = assay: Anti-HIV activity, HIV-1 in wild-type CEM/0 cells; type: cell-based; conditions: Human immunodeficiency virus 1, CCRF-CEM, read-out: Antiviral activity CEM/0 HIV‐1 [HE] EC50
in vitro = conditions: human, CEM/0 cells (wild-type CD4+ T-cells)
Procedure: All TriPPPro‐compounds 10 and 20, as well as their parent nucleosides and the corresponding NTPs, were evaluated for their antiviral activity (expressed as EC50 values) against HIV‐1 (wild‐type CEM/0 cells) and HIV‐2 (wild‐type CEM/0 cells and thymidine kinase‐deficient (CEM/TK^−) cells) with concomitant determination of cytotoxicity in the same cell line (Table 3 ).

[1] = Chemical hydrolysis in phosphate buffer saline (PBS, pH 7.3); type: physicochemical; conditions: PBS pH 7.3, 37 °C, read-out: PBS pH 7.3 t 1/2 (converted)
Procedure: Part 4. Chemical Hydrolysis of TriPPPro-compounds 10 and 20.
Second prepare 1.9 mM hydrolysis […]
Then, aliquots of 50 µL human

HIV‐2 [ROD] = assay: Anti-HIV activity, HIV-2 in wild-type CEM/0 cells; type: cell-based; conditions: Human immunodeficiency virus 2, CCRF-CEM, read-out: Antiviral activity CEM/0 HIV‐2 [ROD] EC50
Procedure: as §1, §2, §3, §4, §5

[2] = Human immunodeficiency virus 2, CEM-TK(-), read-out: Antiviral activity CEM/TK^− HIV‐2 [ROD)] EC50
[3] = Human immunodeficiency virus 2, CEM-TK(-), thymidine kinase-deficient CEM/TK^− cells, mean ±SD n = 2–3; read-out: Antiviral activity CEM/TK^− HIV‐2 [ROD)] EC50
[4] = wild-type CEM/0 cells, mean ±SD n = 2–3

Structure (SMILES) | half-life at 1.9 mM [1] [days] | EC50 (HIV‐2 [ROD)]; [3]) [nM] | EC50 (HIV‐1 [HE]; [4]) [nM] | EC50 (HIV‐2 [ROD]; [4]) [nM] | EC50 (HIV‐2 [ROD)]; thymidine kinase-deficient CEM/TK^− cells, mean ±SD n = 2–3; read-out: Antiviral activity CEM/TK^− HIV‐2 [ROD)] EC50) [nM] | EC50 (HIV‐2 [ROD)]; [2]) [nM] | EC50 (HIV‐1 [HE]) [nM] | CC50 (in vitro) [µM] | EC50 (HIV‐2 [ROD]) [nM]
CCCCCCCCCCCCCCCCCCP(=O)(OCCCC)OP(=O)(O)OP(=O)(O)OC[C@H]1O[C@@H](n2cc(/C=C/Br)c(=O)[nH]c2=O)C[C@@H]1O (stereo partly shown) [10gx] | > 41.7 |  |  |  |  | 24000 ± 2720 | > 10000 | 51.5 ± 17 | > 10000
Cc1cn([C@H]2C[C@H](F)[C@@H](CO)O2)c(=O)[nH]c1=O [1f (FLT), FLT, reference compound] |  | > 100000 | 2.5 ± 2.9 | 4.3 ± 1.7 |  |  |  | > 100 | 
CCCCCCCCCCCCCCCCCCOP(=O)(OCC(CC)CCCC)OP(=O)(O)OP(=O)(O)OC[C@H]1O[C@@H](n2cc(C)c(=O)[nH]c2=O)C[C@@H]1F (stereo partly shown) [10ew] | > 83.3 | 280 ± 120 | 1500 ± 1390 | 860 ± 190 |  |  |  | 52.6 ± 10.9 | 
CCCCCCCCCCCCCCCCCCOP(=O)(OCc1ccc(OC(=O)CCCC)cc1)OP(=O)(O)OP(=O)(O)OC[C@H]1O[C@@H](n2cc(C)c(=O)[nH]c2=O)C[C@@H]1F (stereo partly shown) [10ey] | > 16.7 | 1580 ± 1970 | 300 ± 300 | 780 ± 300 |  |  |  | 54.1 ± 15.8 | 
Cc1cn([C@H]2C[C@H](N=[N+]=[N-])[C@@H](CO)O2)c(=O)[nH]c1=O [1b (AZT), AZT, reference compound] |  | > 150000 | 14 ± 8.5 | 3.4 ± 2.1 | > 100000 |  |  | > 100 | 
CCCCCCCCCCCCCCCCCCOP(=O)(OCC(CC)CCCC)OP(=O)(O)OP(=O)(O)OC[C@@H]1O[C@H](n2cc(F)c(N)nc2=O)CS1 (stereo partly shown) [10cw] | > 83.3 | 120 ± 100 | 210 ± 60 | 180 ± 100 |  |  |  | 64 ± 23.6 | 
CCCCCCCCCCCCCCCCCCP(=O)(OCCCC)OP(=O)(O)OP(=O)(O)OC[C@H]1O[C@@H](n2ccc(=O)[nH]c2=O)C[C@@H]1F (stereo partly shown) [10fx] | > 83.3 |  |  |  |  | 150 ± 60 | 41 ± 44 | 67.3 ± 33.8 | 29 ± 7.1
CCCCCCCCCCCCCCCCCCP(=O)(OCc1ccc(OC(=O)CCCC)cc1)OP(=O)(O)OP(=O)(O)OC[C@@H]1O[C@H](n2cc(F)c(N)nc2=O)CS1 (stereo partly shown) [10cz] | > 62.5 | 20 ± 21 | 160 ± 60 | 140 ± 40 |  |  |  | 66 ± 35.6 | 
O=c1ccn([C@H]2C[C@H](F)[C@@H](CO)O2)c(=O)[nH]1 [1e (FddU), FddU, reference compound] |  | > 100000 | 210 ± 20 | 150 ± 17 |  |  |  | > 100 | 

Continued, in another order:

half-life at 1.9 mM [1] [days] | EC50 (HIV‐2 [ROD)]; [3]) [nM] | EC50 (HIV‐1 [HE]; [4]) [nM] | EC50 (HIV‐2 [ROD]; [4]) [nM] | EC50 (HIV‐2 [ROD)]; thymidine kinase-deficient CEM/TK^− cells, mean ±SD n = 2–3; read-out: Antiviral activity CEM/TK^− HIV‐2 [ROD)] EC50) [nM] | Structure (SMILES) | EC50 (HIV‐2 [ROD)]; [2]) [nM] | EC50 (HIV‐1 [HE]) [nM] | CC50 (in vitro) [µM] | EC50 (HIV‐2 [ROD]) [nM]
2.12 | 1830 ± 1650 | 460 ± 360 | 460 ± 400 |  | CCCCCCCCCCCCCCCCCCP(=O)(OCc1ccc(OC(=O)CCCC)cc1)OP(=O)(O)OP(=O)(O)OC[C@H]1O[C@@H](n2cc(C)c(=O)[nH]c2=O)C[C@@H]1F (stereo partly shown) [10ez] |  |  | 45.3 ± 16.7 | 
> 83.3 | > 20000 | 1200 ± 50 | 2200 ± 1240 |  | CCCCCCCCCCCCCCCCCCOP(=O)(OCC(CC)CCCC)OP(=O)(O)OP(=O)(O)OC[C@H]1O[C@@H](n2cc(Cl)c(=O)[nH]c2=O)C[C@@H]1F (stereo partly shown) [10dw] |  |  | 56.1 ± 15.8 | 
 | > 100000 | 820 ± 330 | 1950 ± 2630 |  | O=c1[nH]c(=O)n([C@H]2C[C@H](F)[C@@H](CO)O2)cc1Cl [1d (FddClU), FddClU, reference compound] |  |  | > 100 | 
8.46 | 160 ± 40 | 64 ± 80 | 39 ± 33 |  | CCCCCCCCCCCCCCCCCCP(=O)(OCc1ccc(OC(=O)CCCC)cc1)OP(=O)(O)OP(=O)(O)OC[C@H]1O[C@@H](n2ccc(=O)[nH]c2=O)C[C@@H]1F (stereo partly shown) [10fz] |  |  | 42 ± 10.6 | 
> 83.3 | 11400 ± 4240 | > 10000 | 4210 ± 370 |  | CCCCCCCCCCCCCCCCCCOP(=O)(OCC(CC)CCCC)OP(=O)(O)OP(=O)(O)OC[C@H]1O[C@@H](n2cc(/C=C/Br)c(=O)[nH]c2=O)C[C@@H]1O (stereo partly shown) [10gw] |  |  | 60.3 ± 20.7 | 
